Results: patent publication US8404694B2, “Aurora kinase modulators and method of use” (Amgen Inc., priority 2008, dated 2013)

Columns and labels:
AuroraB = target: T1, AuroraB (Homo sapiens, UniProt Q96GD4); experiment: AuroraB Homogeneous Time Resolved Fluorescent (HTRF) kinase assay; assay type: biochemical; conditions: ATP 23 μM, biotinylated Histone H3 peptide, read-out: AurB_IC50—IP (Avg)
T1 construct: 20 μL of AuroraB FL His; His
Experimental: AuroraB-Homogeneous Time Resolved Fluorescent (HTRF) Kinase Assay:
The AuroraB HTRF assay begins with AuroraB in the presence of ATP phosphorylating the biotinylated peptide Histone H3. The reaction incubates for about 90 min. the reaction is quenched by addition of detection reagents, which stop the reaction by diluting out the enzyme and chelating the metals due to the presence of EDTA. After addition, the assay is incubated for about 60 min to allow detection reagents to equilibrate.
The AuroraB HTRF assay comprises 1 μL of compound in 100% DMSO, 20 μL of ATP and biotinylated Histone H3, and 20 μL of AuroraB FL His for a final volume of 41 μL. The final concentration of Histone H3 is 0.1 μM. The final concentration of ATP is 23 μM (Km(app)=23 μM+/−2.6) and the final concentration of AuroraB is 400 pM. Buffer conditions are as follows: 50 mM HEPES pH 7.5, 5 mM NaCl, 0.5 mM MgCl, 0.5 mM MnCl, 2 mM DTT, 0.05% BSA.
(§1) The assay is quenched and stopped with 160 μL of detection reagent. Detection reagents are as follows: Buffer made of 50 mM Tris, pH 7.5, 100 mM NaCl, 3 mM EDTA, 0.05% BSA, 0.1% Tween20. Added to this buffer prior to reading is Steptavidin allophycocyanin (SA-APC) at a final conc in the assay of 0.001 mg/mL, and europilated anti-phosphoHistoneH3 Ab (Eu-anti-His H3) at a final conc of 0.064 nM.
(§2) The assay plate is read in either a Discovery or a RubyStar. The eu-anti-His H3 is excited at 320 nm and emits at 615 nm to excite the SA-APC which in turn emits at 655 nm. The ratio of SA-APC at 655 nm (excited due to close proximity to the Eu-anti-His H3 because of phosphorylation of the peptide) to free Eu-anti-His H3 at 615 nm will give substrate phosphorylation.
(§3) Many of the Examples described herein were tested, and found to be active compounds. Table I includes related biological data, which may be interpreted using the activity gauge below: […]

AuroraA-TPX2 = target: T2, AuroraA-TPX2 (Homo sapiens, UniProt O14965); experiment: AuroraA-TPX2 Homogeneous Time Resolved Fluorescent (HTRF) kinase assay; assay type: biochemical; conditions: ATP about 1 μM, biotinylated PLK peptide, read-out: AurA_IC50—IP (Avg)
T2 construct: 20 μL of AuroraA-TPX2 KD GST; GST
T2 sequence (O14965 133-383 limits assumed): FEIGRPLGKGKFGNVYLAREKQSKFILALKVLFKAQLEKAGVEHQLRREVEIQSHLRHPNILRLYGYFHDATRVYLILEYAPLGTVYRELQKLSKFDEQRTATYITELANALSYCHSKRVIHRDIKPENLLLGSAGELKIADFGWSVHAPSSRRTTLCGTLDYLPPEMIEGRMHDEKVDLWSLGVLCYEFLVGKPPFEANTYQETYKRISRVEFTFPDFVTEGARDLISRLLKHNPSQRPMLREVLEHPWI
T2 sequence (Q9ULW0 1-747 partner): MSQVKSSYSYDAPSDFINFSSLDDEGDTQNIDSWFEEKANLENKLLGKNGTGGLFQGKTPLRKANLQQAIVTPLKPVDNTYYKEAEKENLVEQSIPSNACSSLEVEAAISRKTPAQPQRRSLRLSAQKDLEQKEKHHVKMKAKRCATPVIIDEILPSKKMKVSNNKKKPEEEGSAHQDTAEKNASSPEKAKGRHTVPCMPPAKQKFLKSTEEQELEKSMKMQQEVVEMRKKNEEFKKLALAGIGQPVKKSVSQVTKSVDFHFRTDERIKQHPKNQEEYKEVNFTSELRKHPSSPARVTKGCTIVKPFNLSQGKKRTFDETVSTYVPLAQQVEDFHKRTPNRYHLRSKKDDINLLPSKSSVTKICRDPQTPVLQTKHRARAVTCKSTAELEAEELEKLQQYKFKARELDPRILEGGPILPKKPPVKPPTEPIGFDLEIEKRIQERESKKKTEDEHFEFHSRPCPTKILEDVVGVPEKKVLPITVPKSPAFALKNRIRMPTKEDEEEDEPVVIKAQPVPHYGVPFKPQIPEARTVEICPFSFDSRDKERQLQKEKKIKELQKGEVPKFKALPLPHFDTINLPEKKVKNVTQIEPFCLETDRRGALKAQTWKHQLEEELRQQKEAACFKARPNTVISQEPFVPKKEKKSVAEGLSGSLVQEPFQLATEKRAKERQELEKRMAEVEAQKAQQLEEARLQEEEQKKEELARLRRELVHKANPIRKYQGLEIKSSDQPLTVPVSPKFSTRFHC
Experimental: AuroraA-TPX2-Homogeneous Time Resolved Fluorescent (HTRF) Kinase Assay:
The Aurora-A HTRF assay begins with Aurora-A in the presence of ATP phosphorylating the biotinylated peptide PLK. The reaction incubates for about 120 min. Detection reagents are added to quench the reaction. These agents stop the reaction by diluting out the enzyme and chelating the metals due to the presence of EDTA. After addition, the assay is incubated overnight to allow the detection reagents to equilibrate.
The AuroraA HTRF assay comprises 1 μL of compound in 100% DMSO, 20 μL of ATP and biotinylated PLK, and 20 μL of AuroraA-TPX2 KD GST for a final volume of about 41 μL. The final concentration of PLK is about 1 μM. The final concentration of ATP is about 1 μM (Km(app)=1 μM+/−0.1) and the final concentration of AuroraA is about 5 nM. Buffer conditions are as follows: 60 mM HEPES pH 7.5, 25 mM NaCl, 10 mM MgCl, 2 mM DTT, 0.05% BSA.
as §1, with “0.0005” for “0.001”, “anti-phosphoPLK” for “anti-phosphoHistoneH3”, “(Eu-anti-PLK)” for “(Eu-anti-His H3)”, “0.02” for “0.064”
as §2, with “eu-anti-PLK” for “eu-anti-His H3”, “Eu-anti-PLK” for “Eu-anti-His H3”
as §3

HeLa cells = experiment: HeLa cell 24 hr ploidy assay; assay type: cell-based; conditions: Homo sapiens, 24 hrs treatment, DNA content (ploidy), read-out: 24 h_4N Ploidy EC50—IP (Avg)
Experimental: HeLa Cell 24 hr Ploidy Assay Protocol
The purpose of this assay is to evaluate the ability of selected individual compounds to induce Deoxyribonucleic acid (DNA) content (ploidy) in cells thought failed cell division. Cell cycle analysis is a rapid and efficient way to evaluate the status of DNA content (ploidy) of a given cell. HeLa cells (1×10^4 HeLa cells/well) in 100 ul of media (MEM+10% FBS) were plated in 96-well plates (Packard View) and cultured for 24 hrs at 37° C. maintained in a 5% CO2 atmosphere. The following day, cells were treated for 24 hrs with inhibitor compounds (10 pt. Dose ranging from 0.0024-1.25 umol/L). The compounds were serially diluted in DMSO (0.25% final concentration). The cells were fixed (3.7% Formaldehyde and 1% glutaraldehyde) and permeabilized (1×PBS with 1% BSA and 0.2% Triton X-100) in preparation for nuclear staining. The well plates were stained for 45 minutes at RT in the dark using Hoechest 33342 nuclear stain at 0.5 ug·ml (Stock of 10 mg/ml, Invitrogen, CA, Cat # H3570). The nuclear stain was removed by aspiration and the cells were washed with wash buffer. A Cellomics Array Scan Vti plate reader was used to acquire the DNA ploidy data of the cells using Cell Cycle bioapplication. Numbers for each of “valid cell count/well”, “% of 4N cells” and “% of >4Ncells” were calculated with the assistance of an Activity Base 5.1ca software and dose curves were generated using an XLFit software. With XLFit, final EC50 IP and EC50 transit values, as well as the Max and Min, were calculated for each curve. Many of the Examples described herein were tested, and fund to be active compounds. Table I includes related biological data in the 24 h cell-ploidy content assay, which may be interpreted using the activity gauge below: […]

T1 sequence (Q96GD4 whole entry): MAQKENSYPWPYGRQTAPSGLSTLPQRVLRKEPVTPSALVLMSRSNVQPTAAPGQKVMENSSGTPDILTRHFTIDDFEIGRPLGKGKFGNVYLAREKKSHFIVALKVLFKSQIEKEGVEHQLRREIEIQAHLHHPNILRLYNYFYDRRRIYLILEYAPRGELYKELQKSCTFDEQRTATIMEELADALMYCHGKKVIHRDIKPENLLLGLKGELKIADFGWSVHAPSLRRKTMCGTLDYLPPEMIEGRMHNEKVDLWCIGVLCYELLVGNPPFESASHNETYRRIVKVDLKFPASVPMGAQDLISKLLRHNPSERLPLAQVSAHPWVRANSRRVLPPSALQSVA

Row | SMILES | IC50 (AuroraB) [µM] | IC50 (AuroraA-TPX2) [µM] | EC50 (HeLa cells) [µM]
1 | Cc1csc(-c2nnc(Nc3ccc(Sc4ccnc5cc(C6CC6)nn45)cc3)c3ccccc23)c1 [Example 23, N-(4-((2-cyclopropylpyrazolo[1,5-a]pyrimidin-7-yl)thio)phenyl)-4-(4-methyl-2-thienyl)-1-phthalazinamine] | 0.1 to 0.5 | < 0.1 | < 0.1
2 | c1ccc(-c2nnc(Nc3ccc(Sc4ccnc5cc(C6CC6)nn45)cc3)c3ccccc23)cc1 [Example 22, N-(4-((2-cyclopropylpyrazolo[1,5-a]pyrimidin-7-yl)thio)phenyl)-4-phenyl-1-phthalazinamine] | < 0.1 | 0.1 to 0.5 | < 0.1
3 | Oc1cc2nccc(Sc3ccc(Nc4nnc(-c5ccc(Cl)cc5)c5ccccc45)cc3)n2n1 [Example 5, 7-(4-(4-(4-Chlorophenyl)phthalazin-1-ylamino)phenylthio)pyrazolo[1,5-a]pyrimidin-2-ol] | < 0.1 | < 0.1 | 0.1 to 0.5
4 | COCCOc1cc2nccc(Sc3ccc(Nc4nnc(-c5ccccc5)c5ccccc45)cc3)n2n1 [Example 27, N-(4-((2-((2-(methyloxy)ethyl)oxy)pyrazolo[1,5-a]pyrimidin-7-yl)thio)phenyl)-4-phenyl-1-phthalazinamine] | < 0.1 | 0.1 to 0.5 | < 0.1
5 | Clc1ccc(-c2nnc(Nc3ccc(Sc4ccnc5cc(C6CC6)nn45)cc3)c3ccccc23)cc1 [Example 1, 4-(4-Chlorophenyl)-N-(4-(2-cyclopropylpyrazolo[1,5-a]pyrimidin-7-ylthio)phenyl)phthalazin-1-amine] | < 0.1 | > 2.5 | < 0.1
6 | Clc1ccc(-c2nnc(Nc3ccc(Sc4ncnn5ccc(Cl)c45)cc3)c3ccccc23)cc1 [Example 7, 4-(4-Chlorophenyl)-N-(4-(5-chloropyrrolo[1,2-f][1,2,4]triazin-4-ylthio)phenyl)phthalazin-1-amine] | < 0.1 | > 2.5 | 0.1 to 0.5

Second part, the molecule after the results:

Row | IC50 (AuroraB) [µM] | IC50 (AuroraA-TPX2) [µM] | EC50 (HeLa cells) [µM] | SMILES
7 | < 0.1 | 0.1 to 0.5 | 0.1 to 0.5 | Clc1ccc(-c2nnc(Nc3ccc(Oc4ccnn5cccc45)cc3)c3ccccc23)cc1 [Example 2, 4-(4-Chlorophenyl)-N-(4-(pyrrolo[1,2-b]pyridazin-4-yloxy)phenyl)-1-phthalazinamine]
8 | < 0.1 | < 0.1 | < 0.1 | COCCOc1cc2nccc(Sc3ccc(Nc4nnc(-c5cc(C)cs5)c5ccccc45)cc3)n2n1 [Example 28, N-(4-((2-((2-(methyloxy)ethyl)oxy)pyrazolo[1,5-a]pyrimidin-7-yl)thio)phenyl)-4-(4-methyl-2-thienyl)-1-phthalazinamine]
9 | < 0.1 | < 0.1 | < 0.1 | Clc1ccc(-c2nnc(Nc3ccc(Sc4ccnc5ccnn45)cc3)c3ccccc23)nc1 [Example 20, 4-(5-chloro-2-pyridinyl)-N-(4-(pyrazolo[1,5-a]pyrimidin-7-ylthio)phenyl)-1-phthalazinamine]
10 | < 0.1 | < 0.1 | < 0.1 | Cc1ccc(-c2nnc(Nc3ccc(Sc4ccnc5ccnn45)cc3)c3ccccc23)nc1 [Example 21, 4-(5-methyl-2-pyridinyl)-N-(4-(pyrazolo[1,5-a]pyrimidin-7-ylthio)phenyl)-1-phthalazinamine]
11 | < 0.1 | > 2.5 | 0.1 to 0.5 | Clc1ccn2ncnc(Sc3ccc(Nc4nnc(-c5ccccc5)c5ccccc45)cc3)c12 [Example 29, N-(4-((5-chloropyrrolo[2,1-f][1,2,4]triazin-4-yl)thio)phenyl)-4-phenyl-1-phthalazinamine]
12 | < 0.1 | 0.5 to 2.5 | 0.1 to 0.5 | Cc1csc(-c2nnc(Nc3ccc(Sc4ncnn5cccc45)cc3)c3ccccc23)c1 [Example 26, 4-(4-methyl-2-thienyl)-N-(4-(pyrrolo[2,1-f][1,2,4]triazin-4-ylthio)phenyl)-1-phthalazinamine]
13 | < 0.1 | 0.1 to 0.5 | 0.1 to 0.5 | Cc1csc(-c2nnc(Nc3ccc(Oc4ncnn5cccc45)cc3)c3ccccc23)c1 [Example 24, 4-(4-methyl-2-thienyl)-N-(4-(pyrrolo[2,1-f][1,2,4]triazin-4-yloxy)phenyl)-1-phthalazinamine]
